Source: US10202377B2, “3-(1H-benzo[D]imidazol-2-yl)-1H-pyrazolo[3,4-C]pyridine and therapeutic uses thereof” (Samumed, LLC, priority 2014, dated 2019)

How the values were obtained:
[1] = tested on: primary human fibroblasts derived from IPF patients (LL29 cells); assay: Inhibition of fibrosis (αSMA staining) in TGF-β1-treated primary human fibroblasts from IPF patients; type: cell-based; conditions: Fibroblast, 96 h, TGF-β1 20 ng/mL, 4 days
Summary of the method: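 LL29 IPF fibroblasts in F12 with 1% FBS were stimulated with TGF-β1 (20 ng/mL) and incubated 4 days at 37 °C. SYTOX-positive dead cells were excluded, and αSMA-positive cells were counted by immunostaining as % of total. Values were normalized to TGF-β1/DMSO wells on the same plate, and EC50 derived.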

[2] = tested on: Wnt activity (Sp5-Luc reporter, SW480 colon carcinoma cells); assay: Sp5-Luc Wnt reporter gene screening assay in SW480 colon carcinoma cells; conditions: Homo sapiens
Method: The screening assay for Wnt activity is described as follows.
SW480 colon carcinoma cells were transduced with a lentiviral vector expressing luciferase with a human Sp5 promoter consisting of a sequence of eight TCF/LEF binding sites. SW480 cells stably expressing the Sp5-Luc reporter gene and a hygromycin resistance gene were selected by treatment with 150 μg/ml of hygromycin for 7 days. These stably transduced SW480 cells were expanded in cell culture and used for all further screening activities. For Sp5-Luc reporter gene assays, the cells were plated at 10,000 cells/well in 96-well plates with growth medium containing 10% fetal calf serum and incubated overnight at 37° C. and 5% CO2. […] Compound transfer from serially diluted source plates to assay plates containing the cells was accomplished using a pintool (Multimek 96, Beckman equipped with V&P Scientific FP1S50H pins) based liquid handling protocol. This protocol used a slotted pin to transfer 50 nl of compound from a source plate well to an assay plate well containing 50 μl of cells in growth medium. […] Control wells received 50 nl of DMSO treatment for normalization and calculating IC50 values. The treated cells were incubated at 37° C. and 5% CO2 for an additional forty-two hours. Following incubation, the growth medium was removed and 50 μl of BrightGlo luminescence reagent (Promega) was added to each well of the 96-well assay plates. The plates were placed on an orbital shaker for 5 min and then luminescence was quantified on the Victor3 (Perkin Elmer) plate reader.

[3] = tested on: primary human mesenchymal stem cells (hMSCs); assay: Chondrogenesis induction in primary human mesenchymal stem cells (nodule imaging, Rhodamine B/Nile Red); type: cell-based; conditions: 6 days, dose at which the compound reached maximum chondrogenesis activity, dose range 10-2700 nM
Method: The above synthesized compounds were screened using primary human mesenchymal stem cells (hMSCs) to determine their ability to induce chondrogenesis (process by which cartilage is developed).
Human Mesenchymal Stem Cell Culture: Primary human mesenchymal stem cells (hMSCs) were purchased from Lonza (Walkersville, Md.) and expanded in Mesenchymal Stem Cell Growth Media (Lonza). Cells between passage 3 and 6 were used for the experiments.
Compound Screening: Each compound was dissolved in DMSO as a 10 mM stock and used to prepare compound source plates. Serial dilution (1:3, 6-point dose-response curves from 2700 nM to 10 nM) and compound transfer was performed using the ECHO 550 (Labcyte, Sunnyvale, Calif.) into 96-well clear bottom assay plates (Greiner Bio-One) with appropriate DMSO backfill for a final DMSO concentration of 0.03%. hMSCs were plated at 20,000 cells/well in 250 μL/well Incomplete Chondrogenic Induction Medium (Lonza; DMEM, dexamethasone, ascorbate, insulin-transferrin-selenium [ITS supplement], gentamycin-amphotericin [GA-1000], sodium pyruvate, proline and L-glutamine). TGF-β3 (10 ng/mL) was used as a positive control for differentiation while negative control wells were treated with 75 nL DMSO for normalization and calculating EC50 values. Cells were incubated at 37° C. and 5% CO2 for 6 days. To image chondrogenic nodules, the cells were fixed using 4% formaldehyde (Electron Microscopy Sciences), and stained with 2 μg/mL Rhodamine B (Sigma-Aldrich) and 20 μM Nile Red (Sigma-Aldrich) [Johnson K., et. al, A Stem Cell-Based Approach to Cartilage Repair, Science, (2012), 336(6082), 717-721]. The nodules imaged (4 images per well at 4× magnification) by excitation at 531 nm and emission at 625 nm and quantified using the CellInsight CX5 (Thermo Scientific). Number of nodules in each well was normalized to the average of 3 DMSO treated wells on the same plate using Excel (Microsoft Inc.). The normalized averages (fold change over DMSO) of 3 replicate wells for each compound concentration were calculated. Due to solubility limitations of some of the compounds, curve fitting was incomplete leading to inaccurate EC50 determinations.
Using TGF-β3 as a positive control, the concentration of test compounds required to induce equivalent levels of chondrogenesis is reported. In addition, the maximum activity of each compound and the respective dose that each compound reached maximum chondrogenesis activity is reported.

SMILES: c1cncc(-c2cc3c(-c4nc5c(-c6cccnc6)cccc5[nH]4)n[nH]c3cn2)c1 [Compound 82, 5-(Pyridin-3-yl)-3-(4-(pyridin-3-yl)-1H-benzo[d]imidazol-2-yl)-1H-pyrazolo[3,4-c]pyridine]
- EC50 [1]: 9 nM
- IC50 [2]: 4.5 nM
- Conc (nM) of Max. activity [3]: 30 nM

SMILES: c1cncc(-c2cc3c(-c4nc5ccccc5[nH]4)n[nH]c3cn2)c1 [Compound 238, 3-(1H-Benzo[d]imidazol-2-yl)-5-(pyridin-3-yl)-1H-pyrazolo[3,4-c]pyridine]
- EC50 [1]: 57 nM
- IC50 [2]: 7.7 nM
- Conc (nM) of Max. activity [3]: 100 nM

SMILES: CC(C)CC(=O)Nc1cncc(-c2cc3c(-c4nc5c(-c6ccoc6)cccc5[nH]4)n[nH]c3cn2)c1 [Compound 288, N-(5-(3-(4-(Furan-3-yl)-1H-benzo[d]imidazol-2-yl)-1H-pyrazolo[3,4-c]pyridin-5-yl)pyridin-3-yl)-3-methylbutanamide]
- EC50 [1]: 9 nM
- IC50 [2]: 6.8 nM
- Conc (nM) of Max. activity [3]: 10 nM

SMILES: Cc1ccncc1-c1cc2c(-c3nc4c(-c5cc(F)cc(CNS(C)(=O)=O)c5)cccc4[nH]3)n[nH]c2cn1 [Compound 421, N-(3-Fluoro-5-(2-(5-(4-methylpyridin-3-yl)-1H-pyrazolo[3,4-c]pyridin-3-yl)-1H-benzo[d]imidazol-4-yl)benzyl)methanesulfonamide]
- EC50 [1]: 9 nM
- IC50 [2]: 10 nM
- Conc (nM) of Max. activity [3]: 100 nM

SMILES: CN(C)Cc1cncc(-c2cc3c(-c4nc5c(-c6cccc(F)c6)cccc5[nH]4)n[nH]c3cn2)c1 [Compound 13, 1-(5-(3-(4-(3-Fluorophenyl)-1H-benzo[d]imidazol-2-yl)-1H-pyrazolo[3,4-c]pyridin-5-yl)pyridin-3-yl)-N,N-dimethylmethanamine]
- EC50 [1]: 9 nM
- IC50 [2]: 19.1 nM
- Conc (nM) of Max. activity [3]: 300 nM

SMILES: CC(C)(C)C(=O)Nc1cncc(-c2cc3c(-c4nc5c(-c6ccc(F)cc6)cccc5[nH]4)n[nH]c3cn2)c1 [Compound 34, N-(5-(3-(4-(4-Fluorophenyl)-1H-benzo[d]imidazol-2-yl)-1H-pyrazolo[3,4-c]pyridin-5-yl)pyridin-3-yl)pivalamide]
- EC50 [1]: 47 nM
- IC50 [2]: 31.2 nM
- Conc (nM) of Max. activity [3]: 2700 nM

SMILES: Cc1ccc(-c2cccc3[nH]c(-c4n[nH]c5cnc(-c6cncc(N)c6)cc45)nc23)s1 [Compound 367, 5-(3-(4-(5-Methylthiophen-2-yl)-1H-benzo[d]imidazol-2-yl)-1H-pyrazolo[3,4-c]pyridin-5-yl)pyridin-3-amine]
- EC50 [1]: 9 nM
- IC50 [2]: 3.5 nM
- Conc (nM) of Max. activity [3]: 30 nM

SMILES: CC(=O)c1ccc(-c2cccc3[nH]c(-c4n[nH]c5cnc(-c6cncc(NC(=O)CC(C)C)c6)cc45)nc23)s1 [Compound 392, N-(5-(3-(4-(5-Acetylthiophen-2-yl)-1H-benzo[d]imidazol-2-yl)-1H-pyrazolo[3,4-c]pyridin-5-yl)pyridin-3-yl)-3-methylbutanamide]
- EC50 [1]: 267 nM
- IC50 [2]: 32.1 nM
- Conc (nM) of Max. activity [3]: 2700 nM

SMILES: CN(C)Cc1cncc(-c2cc3c(-c4nc5c(N6CCCCC6)cccc5[nH]4)n[nH]c3cn2)c1 [Compound 169, N,N-dimethyl-1-(5-(3-(4-(piperidin-1-yl)-1H-benzo[d]imidazol-2-yl)-1H-pyrazolo[3,4-c]pyridin-5-yl)pyridin-3-yl)methanamine]
- EC50 [1]: 9 nM
- IC50 [2]: 28.3 nM
- Conc (nM) of Max. activity [3]: 900 nM

SMILES: CC(C)Nc1cncc(-c2cc3c(-c4nc5c(-c6cc(F)cc(NCCN(C)C)c6)cccc5[nH]4)n[nH]c3cn2)c1 [Compound 454, N^1-(3-Fluoro-5-(2-(5-(5-(isopropylamino)pyridin-3-yl)-1H-pyrazolo[3,4-c]pyridin-3-yl)-1H-benzo[d]imidazol-4-yl)phenyl)-N^2,N^2-dimethylethane-1,2-diamine]
- EC50 [1]: 117 nM
- IC50 [2]: 51.6 nM
- Conc (nM) of Max. activity [3]: 300 nM

SMILES: Fc1cccc(-c2cccc3[nH]c(-c4n[nH]c5cnc(-c6cn[nH]c6)cc45)nc23)c1 [Compound 939, 3-(4-(3-Fluorophenyl)-1H-benzo[d]imidazol-2-yl)-5-(1H-pyrazol-4-yl)-1H-pyrazolo[3,4-c]pyridine]
- EC50 [1]: 9 nM
- IC50 [2]: 25 nM
- Conc (nM) of Max. activity [3]: 30 nM

SMILES: Nc1cncc(-c2cc3c(-c4nc5c(-c6ccccc6F)cccc5[nH]4)n[nH]c3cn2)c1 [Compound 55, 5-(3-(4-(2-Fluorophenyl)-1H-benzo[d]imidazol-2-yl)-1H-pyrazolo[3,4-c]pyridin-5-yl)pyridin-3-amine]
- EC50 [1]: 9 nM
- IC50 [2]: 19.5 nM
- Conc (nM) of Max. activity [3]: 900 nM

SMILES: CC(C)C(=O)Nc1cncc(-c2cc3c(-c4nc5c(-c6ccsc6)cccc5[nH]4)n[nH]c3cn2)c1 [Compound 269, N-(5-(3-(4-(Thiophen-3-yl)-1H-benzo[d]imidazol-2-yl)-1H-pyrazolo[3,4-c]pyridin-5-yl)pyridin-3-yl)isobutyramide]
- EC50 [1]: 49 nM
- IC50 [2]: 4.2 nM
- Conc (nM) of Max. activity [3]: 900 nM

SMILES: O=C(Nc1cncc(-c2cc3c(-c4nc5c(-c6cccs6)cccc5[nH]4)n[nH]c3cn2)c1)C1CC1 [Compound 331, N-(5-(3-(4-(Thiophen-2-yl)-1H-benzo[d]imidazol-2-yl)-1H-pyrazolo[3,4-c]pyridin-5-yl)pyridin-3-yl)cyclopropanecarboxamide]
- EC50 [1]: 29 nM
- IC50 [2]: 17.2 nM
- Conc (nM) of Max. activity [3]: 300 nM

SMILES: Cc1cn(-c2cccc3[nH]c(-c4n[nH]c5cnc(-c6cncc(NC(=O)CC(C)C)c6)cc45)nc23)cn1 [Compound 184, 3-Methyl-N-(5-(3-(4-(4-methyl-1H-imidazol-1-yl)-1H-benzo[d]imidazol-2-yl)-1H-pyrazolo[3,4-c]pyridin-5-yl)pyridin-3-yl)butanamide]
- EC50 [1]: 277 nM
- IC50 [2]: 55.1 nM
- Conc (nM) of Max. activity [3]: 30 nM

SMILES: CN1CCN(c2cccc3[nH]c(-c4n[nH]c5cnc(-c6cncc(N)c6)cc45)nc23)CC1 [Compound 211, 5-(3-(4-(4-Methylpiperazin-1-yl)-1H-benzo[d]imidazol-2-yl)-1H-pyrazolo[3,4-c]pyridin-5-yl)pyridin-3-amine]
- EC50 [1]: 613 nM
- IC50 [2]: 96.8 nM
- Conc (nM) of Max. activity [3]: 2700 nM

SMILES: CC(=O)c1ccc(-c2cccc3[nH]c(-c4n[nH]c5cnc(-c6cncc(NC(=O)C7CCCCC7)c6)cc45)nc23)s1 [Compound 412, N-(5-(3-(4-(5-Acetylthiophen-2-yl)-1H-benzo[d]imidazol-2-yl)-1H-pyrazolo[3,4-c]pyridin-5-yl)pyridin-3-yl)cyclohexanecarboxamide]
- EC50 [1]: 9180 nM
- IC50 [2]: 150 nM
